According to patent publication US20230203059A1, “MACROCYCLIC JAK INHIBITOR AND USES THEREOF” (Biopolar Hongye (Guangdong) Pharmaceutical Co. Ltd., priority 2020, published 2023):

Tests used:
Assay type in all cases: biochemical
[1] = molecular target: JAK1 (Homo sapiens, UniProt P23458); test: JAK kinase activity, homogeneous time-resolved fluorescence (JAK1 reaction system); conditions: ATP 2 μM, JAK1 protein 0.2 ng/μL; read-out: JAK 1 activity
Method: (§1) The activity measurement method of JAK kinase was to use homogeneous time-resolved fluorescence technique. The reaction was performed in 384 shallow well plates with a total reaction volume of 10 μL. The mixture of kinase protein, compound, ATP and substrate was carried out in a reaction buffer of 50 mM Hepes (pH7.0), NaN3 0.02%, BSA 0.01%, 0.1 mM Orthocanadate, 5 mM MgCl2, and 1 mM DTT. After reacting for 1 hour, an antibody capable of recognizing substrate phosphorylation, dye XL-615 and detection buffer (Cisbio) containing EDTA were added to the system. The reaction signal of kinase was detected by PE company's porous plate detector. The parameter settings were excitation light at 320 nm, emission light at 615 nm and 665 nm. The activity of JAK is indirectly reflected by the signal ratio of 665 nm and 615 nm. In the reaction, the background well without enzyme and the total enzyme activity well without compound were set.
(§2) The IC50 value of the compound inhibiting protein was obtained by the formula: Y=100/(1+10^((Log IC50−X)*HillSlope)). In JAK1 reaction system, the concentration of ATP was 2 μM, and the concentration of JAK1 protein was 0.2 ng/μL.

[2] = molecular target: JAK2 (Homo sapiens, UniProt O60674); test: JAK kinase activity, homogeneous time-resolved fluorescence (JAK2 reaction system); conditions: ATP 2 μM, JAK2 protein 0.01 ng/μL
Sequence of JAK2 (O60674 whole entry): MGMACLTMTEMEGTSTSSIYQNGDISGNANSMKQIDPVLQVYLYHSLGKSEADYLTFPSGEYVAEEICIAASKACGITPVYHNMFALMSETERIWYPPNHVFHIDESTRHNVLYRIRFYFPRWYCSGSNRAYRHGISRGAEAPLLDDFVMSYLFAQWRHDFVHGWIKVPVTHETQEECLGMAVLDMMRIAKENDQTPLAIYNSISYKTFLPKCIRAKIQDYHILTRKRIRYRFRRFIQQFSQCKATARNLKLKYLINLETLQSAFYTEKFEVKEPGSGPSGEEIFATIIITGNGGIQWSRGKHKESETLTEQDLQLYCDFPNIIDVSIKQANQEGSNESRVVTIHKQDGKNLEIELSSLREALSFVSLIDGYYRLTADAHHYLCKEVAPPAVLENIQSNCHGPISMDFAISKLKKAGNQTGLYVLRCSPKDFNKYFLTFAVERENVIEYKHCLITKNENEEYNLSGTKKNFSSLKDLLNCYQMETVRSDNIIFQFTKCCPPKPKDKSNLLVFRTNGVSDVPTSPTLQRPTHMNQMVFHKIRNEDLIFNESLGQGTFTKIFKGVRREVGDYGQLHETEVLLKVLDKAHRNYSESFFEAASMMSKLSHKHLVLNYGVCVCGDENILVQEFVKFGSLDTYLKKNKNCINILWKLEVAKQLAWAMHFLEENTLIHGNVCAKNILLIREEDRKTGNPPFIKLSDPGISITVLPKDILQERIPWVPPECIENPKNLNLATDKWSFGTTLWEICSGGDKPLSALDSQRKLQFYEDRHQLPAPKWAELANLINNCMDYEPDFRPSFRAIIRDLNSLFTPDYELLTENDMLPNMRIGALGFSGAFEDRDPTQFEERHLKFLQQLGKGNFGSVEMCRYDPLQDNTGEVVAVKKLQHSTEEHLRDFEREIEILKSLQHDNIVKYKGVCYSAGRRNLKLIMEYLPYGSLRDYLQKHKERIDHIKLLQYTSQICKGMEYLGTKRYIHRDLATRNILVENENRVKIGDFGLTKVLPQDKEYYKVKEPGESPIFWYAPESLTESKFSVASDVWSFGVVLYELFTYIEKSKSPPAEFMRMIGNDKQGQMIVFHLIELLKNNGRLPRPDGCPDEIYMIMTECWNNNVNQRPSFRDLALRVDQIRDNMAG
Method: as §1, §2
In JAK2 reaction system, the concentration of ATP was 2 μM, and the concentration of JAK2 protein was 0.01 ng/μL.

[3] = molecular target: T1, JAK3 (Homo sapiens, UniProt P52333); test: JAK kinase activity, homogeneous time-resolved fluorescence (JAK3 reaction system); conditions: ATP 2 μM, JAK3 protein 0.04 ng/μL; read-out: JAK 3 activity
T1 sequence (P52333 1-1124): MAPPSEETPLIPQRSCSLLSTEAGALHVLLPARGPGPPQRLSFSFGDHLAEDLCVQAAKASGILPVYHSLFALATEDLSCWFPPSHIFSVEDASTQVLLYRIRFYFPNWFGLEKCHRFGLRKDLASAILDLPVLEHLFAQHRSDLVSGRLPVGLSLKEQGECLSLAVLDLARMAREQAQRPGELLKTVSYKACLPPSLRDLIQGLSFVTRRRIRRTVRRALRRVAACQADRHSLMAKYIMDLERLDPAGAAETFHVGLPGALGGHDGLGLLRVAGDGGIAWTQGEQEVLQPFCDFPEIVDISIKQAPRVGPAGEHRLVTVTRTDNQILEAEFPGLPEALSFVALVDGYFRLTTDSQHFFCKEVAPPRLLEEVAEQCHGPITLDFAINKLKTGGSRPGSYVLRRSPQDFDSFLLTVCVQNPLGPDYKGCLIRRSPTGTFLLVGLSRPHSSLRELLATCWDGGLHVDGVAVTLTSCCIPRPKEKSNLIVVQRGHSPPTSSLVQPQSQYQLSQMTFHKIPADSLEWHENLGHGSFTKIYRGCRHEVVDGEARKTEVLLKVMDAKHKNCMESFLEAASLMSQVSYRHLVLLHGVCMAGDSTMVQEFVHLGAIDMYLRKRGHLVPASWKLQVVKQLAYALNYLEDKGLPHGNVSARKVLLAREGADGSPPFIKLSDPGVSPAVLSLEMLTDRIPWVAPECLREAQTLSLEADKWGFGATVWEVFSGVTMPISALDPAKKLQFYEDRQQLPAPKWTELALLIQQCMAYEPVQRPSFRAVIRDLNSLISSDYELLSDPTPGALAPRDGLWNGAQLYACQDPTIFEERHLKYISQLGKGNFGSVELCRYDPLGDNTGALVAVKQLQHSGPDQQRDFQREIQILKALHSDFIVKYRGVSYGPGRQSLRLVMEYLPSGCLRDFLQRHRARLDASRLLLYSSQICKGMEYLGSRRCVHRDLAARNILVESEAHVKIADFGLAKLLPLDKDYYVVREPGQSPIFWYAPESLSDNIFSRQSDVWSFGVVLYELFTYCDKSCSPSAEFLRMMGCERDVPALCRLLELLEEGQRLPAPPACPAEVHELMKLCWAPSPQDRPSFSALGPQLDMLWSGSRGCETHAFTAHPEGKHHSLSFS
Method: as §1, with “The reaction was performed in 384 shallow well plates with a total reaction volume of 10 μL.” left out, “After reacting for 1 hour, an antibody capable of recognizing substrate phosphorylation, dye XL-615 and detection buffer (Cisbio) containing EDTA were added to the system.” left out, “set. […]” for “set.”
In JAK3 reaction system, the concentration of ATP was 2 μM, and the concentration of JAK3 protein was 0.04 ng/μL.

[4] = molecular target: TYK2 (Homo sapiens, UniProt P29597); test: JAK kinase activity, homogeneous time-resolved fluorescence (TYK2 reaction system); conditions: ATP 2 μM, TYK2 protein 0.2 ng/μL; read-out: TYK 2 activity
Sequence of TYK2 (P29597 whole entry): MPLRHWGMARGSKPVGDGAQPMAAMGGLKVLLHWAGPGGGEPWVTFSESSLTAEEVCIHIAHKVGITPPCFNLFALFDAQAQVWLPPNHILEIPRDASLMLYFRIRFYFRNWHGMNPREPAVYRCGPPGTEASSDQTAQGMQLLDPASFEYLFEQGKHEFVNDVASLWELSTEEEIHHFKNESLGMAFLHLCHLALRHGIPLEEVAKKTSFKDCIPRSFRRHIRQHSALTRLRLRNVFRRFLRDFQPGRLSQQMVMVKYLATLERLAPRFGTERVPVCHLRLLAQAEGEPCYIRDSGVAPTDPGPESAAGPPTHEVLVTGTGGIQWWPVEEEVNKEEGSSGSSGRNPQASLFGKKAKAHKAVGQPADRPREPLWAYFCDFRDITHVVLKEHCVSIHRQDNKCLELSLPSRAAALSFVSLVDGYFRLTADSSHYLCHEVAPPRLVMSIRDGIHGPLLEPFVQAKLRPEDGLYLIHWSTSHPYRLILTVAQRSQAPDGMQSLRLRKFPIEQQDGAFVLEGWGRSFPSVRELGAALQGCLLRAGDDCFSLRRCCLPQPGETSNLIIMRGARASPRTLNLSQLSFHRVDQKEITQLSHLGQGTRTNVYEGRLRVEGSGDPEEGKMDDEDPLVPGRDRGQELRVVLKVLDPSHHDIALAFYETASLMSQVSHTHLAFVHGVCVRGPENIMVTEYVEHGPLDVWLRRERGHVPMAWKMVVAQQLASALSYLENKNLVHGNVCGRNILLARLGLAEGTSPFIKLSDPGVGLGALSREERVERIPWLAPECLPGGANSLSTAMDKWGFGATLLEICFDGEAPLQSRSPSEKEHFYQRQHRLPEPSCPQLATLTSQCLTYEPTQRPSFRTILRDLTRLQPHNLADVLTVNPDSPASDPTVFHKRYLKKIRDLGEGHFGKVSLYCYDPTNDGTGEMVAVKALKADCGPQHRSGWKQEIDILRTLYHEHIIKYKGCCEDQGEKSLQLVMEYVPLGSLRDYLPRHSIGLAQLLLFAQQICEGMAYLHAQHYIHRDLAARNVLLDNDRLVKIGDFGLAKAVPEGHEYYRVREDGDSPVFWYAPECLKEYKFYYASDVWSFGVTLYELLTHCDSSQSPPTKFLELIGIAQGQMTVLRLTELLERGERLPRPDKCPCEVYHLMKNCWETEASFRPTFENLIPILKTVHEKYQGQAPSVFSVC
Method: as §1, §2
In TYK2 reaction system, the concentration of ATP was 2 μM, and the concentration of TYK2 protein was 0.2 ng/μL.

Sequence of JAK1 (P23458 whole entry): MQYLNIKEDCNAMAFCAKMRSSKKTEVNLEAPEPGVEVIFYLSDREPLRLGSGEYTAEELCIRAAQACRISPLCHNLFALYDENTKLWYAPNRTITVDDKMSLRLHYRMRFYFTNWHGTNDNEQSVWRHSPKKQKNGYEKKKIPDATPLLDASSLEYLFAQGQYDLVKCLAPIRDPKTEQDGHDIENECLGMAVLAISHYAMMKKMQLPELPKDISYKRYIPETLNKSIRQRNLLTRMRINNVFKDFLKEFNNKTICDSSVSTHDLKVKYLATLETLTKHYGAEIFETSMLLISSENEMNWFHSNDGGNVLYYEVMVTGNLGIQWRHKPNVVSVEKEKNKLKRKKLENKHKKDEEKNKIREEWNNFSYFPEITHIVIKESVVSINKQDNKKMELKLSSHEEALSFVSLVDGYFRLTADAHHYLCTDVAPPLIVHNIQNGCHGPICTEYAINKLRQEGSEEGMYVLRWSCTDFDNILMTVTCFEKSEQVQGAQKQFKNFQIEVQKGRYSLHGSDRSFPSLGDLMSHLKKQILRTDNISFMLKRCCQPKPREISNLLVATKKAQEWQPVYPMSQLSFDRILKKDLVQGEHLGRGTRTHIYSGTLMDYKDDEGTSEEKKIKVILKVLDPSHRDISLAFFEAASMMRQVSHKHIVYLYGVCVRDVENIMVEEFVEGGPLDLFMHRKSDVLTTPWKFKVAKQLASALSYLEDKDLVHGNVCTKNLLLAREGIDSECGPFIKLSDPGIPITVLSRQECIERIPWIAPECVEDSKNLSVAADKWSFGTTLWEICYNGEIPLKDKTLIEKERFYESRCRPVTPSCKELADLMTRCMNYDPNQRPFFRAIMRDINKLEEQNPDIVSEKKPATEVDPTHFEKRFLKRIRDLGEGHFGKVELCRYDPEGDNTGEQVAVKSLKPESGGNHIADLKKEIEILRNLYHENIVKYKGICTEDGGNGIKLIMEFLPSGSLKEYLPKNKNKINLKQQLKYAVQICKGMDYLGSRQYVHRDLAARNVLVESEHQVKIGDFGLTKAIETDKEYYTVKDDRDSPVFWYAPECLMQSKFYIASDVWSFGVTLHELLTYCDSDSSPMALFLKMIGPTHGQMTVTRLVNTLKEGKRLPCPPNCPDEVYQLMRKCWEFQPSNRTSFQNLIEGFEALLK

Row | Structure (SMILES) | IC50 [1] | IC50 [2] | IC50 [3] | IC50 [4]
1 | Cc1ccc2cc1COCCCCNC(=O)c1ccc(c(C)c1)-c1ccnc(n1)N2 [Example 39, 1^2,4^4-dimethyl-6-oxa-3,11-diaza-2(4,2)-pyrimidina-1(1,4),4(1,3)-diben-zenacyclododecaphan-12-one] | 1000 to 10000 nM | 1000 to 10000 nM | 101 to 1000 nM | > 10000 nM
2 | CC1CCNC(=O)c2ccc(c([N+](=O)[O-])c2)-c2ccnc(n2)Nc2ccc(Oc3cccnc3)c(c2)COC1 (centres unmarked) [Example 129, 8-methyl-1^2-nitro-4^4-(pyridin-3-ox-yl)-6-oxa-3,11-diaza-2(4,2)-pyrimi-dina-1(1,4),4(1,3)-dibenzenacyclo-dodecaphan-12-one] | 1000 to 10000 nM | 1000 to 10000 nM | 101 to 1000 nM | > 10000 nM
3 | Cc1cc2ccc1-c1ccnc(n1)Nc1cccc(c1)COCCCCNC2=O [Example 40, 1^2-methyl-6-oxa-3,11-diaza-2(4,2)-pyrimidina-1(1,4),4(1,3)-diben-zenacyclododecaphan-12-one] | 1000 to 10000 nM | 1000 to 10000 nM | 101 to 1000 nM | > 10000 nM
4 | Nc1cc2ccc1-c1ccnc(n1)Nc1ccc(Br)c(c1)COCCCCNC2=O [Example 90, 1^2-amino-4^4-bromo-6-oxa-3,11-diaza-2(4,2)-pyrimidina-1(1,4),4(1,3)-di-benzenacyclododecaphan-12-one] | 101 to 1000 nM | 101 to 1000 nM | 11 to 100 nM | > 10000 nM
5 | Nc1cc2ccc1-c1ccnc(n1)Nc1cc(cc(N3CCOCC3)c1)COCCCCNC2=O [Example 52, 1^2-amino-4^5-morpholin-6-oxa-3,11-diaza-2(4,2)-pyrimidina-1(1,4),4(1,3)-dibenzenacyclododecaphan-12-one] | 101 to 1000 nM | 11 to 100 nM | < 10 nM | 101 to 1000 nM
6 | Nc1cc2ccc1-c1ccnc(n1)Nc1ccc(OCC3CCCC3)c(c1)COCCCCNC2=O [Example 105, 1^2-amino-4^4-(cyclopentylmethoxy)-6-oxa-3,11-diaza-2(4,2)-pyrimidi-na-1(1,4),4(1,3)-dibenzenacyclodo-decaphan-12-one] | 1000 to 10000 nM | 101 to 1000 nM | < 10 nM | > 10000 nM
7 | O=C1NCCCCOCc2cc(ccc2OCC2CCC(F)(F)C2)Nc2nccc(n2)-c2ccc1cc2[N+](=O)[O-] (centres unmarked) [Example 120, 4^4-((3,3-difluorocyclopentyl)meth-oxy)-1^2-nitro-6-oxa-3,11-diaza-2(4,2)-pyrimidina-1(1,4),4(1,3)-di-benzenacyclododecaphan-12-one] | 1000 to 10000 nM | 1000 to 10000 nM | 101 to 1000 nM | > 10000 nM
8 | O=C1NCCCCOCc2cccc(c2)Nc2ncc(Cl)c(n2)-c2ccc1cc2Cl [Example 18, 1^2,2^5-dichloro-6-oxa-3,11-diaza-2(4,2)-pyrimidina-1(1,4),4(1,3)-dibenz-enacyclododecaphan-12-one] | 1000 to 10000 nM | 101 to 1000 nM | 101 to 1000 nM | > 10000 nM
9 | Nc1cc2ccc1-c1ccnc(n1)Nc1ccc(OC3CC3)c(c1)COc1ccc(cc1)NC2=O [Example 200, 1^2-amino-4^4-cyclopropoxy-6-oxa-3,8-diaza-2(4,2)-pyrimidina-1,7(1,4),4(1,3)-tribenzenacyclononanphane-9-one] | 1000 to 10000 nM | 101 to 1000 nM | 11 to 100 nM | > 10000 nM
10 | O=C1NCCCCOCc2cc(ccc2N2CCOCC2)Nc2nccc(n2)-c2ccc1cc2 [Example 1, 4^4-morpholin-6-oxa-3, 11-diaza-2 (4,2)-pyrimidina-1(1,4),4(1,3)-dibenzenacyclododecaphan-12-one] | 11 to 100 nM | 11 to 100 nM | < 10 nM | 101 to 1000 nM
11 | COc1cnc2nc1-c1ccc(cc1)C(=O)NCCCCOCc1cc(ccc1N1CCOCC1)N2 [Example 26, 2^5-methoxy-4^4-morpholin-6-oxa-3,11-diaza-2(4,2)-pyrimidina-1(1,4),4(1,3)-dibenzenacyclododecaphan-12-one] | 101 to 1000 nM | 11 to 100 nM | 11 to 100 nM | 101 to 1000 nM
